Read-outs that look alike come from different tables or passages of the source.
Assays:
[1] = tested on: Capan-1 pancreatic adenocarcinoma cells; assay: Antiproliferative screening, MTS cell viability assay; assay type: cell-based; conditions: Homo sapiens
[2] = tested on: HEL 299 normal human lung fibroblasts; assay: Antiproliferative screening on noncancerous cells; conditions: for IC50: Homo sapiens, HEL 299, read-out: IC50 HEL 299
[3] = tested on: HCT-116 colorectal carcinoma cells; assay: Antiproliferative screening, MTS cell viability assay; assay type: cell-based; conditions: Homo sapiens
[4] = tested on: HL-60 acute myeloid leukemia cells; assay: Antiproliferative screening, IncuCyte cell growth; assay type: cell-based; conditions: Homo sapiens
[5] = tested on: LN-229 glioblastoma cells; assay: Antiproliferative screening, MTS cell viability assay; assay type: cell-based; conditions: Homo sapiens, LN-229, 72 h, read-out: IC50 LN-229
[6] = tested on: K-562 chronic myeloid leukemia cells; assay: Antiproliferative screening, IncuCyte cell growth; assay type: cell-based; conditions: Homo sapiens, K562, 72 h, read-out: IC50 K-562
[7] = tested on: DND-41 acute lymphoblastic leukemia cells; assay: Antiproliferative screening, IncuCyte cell growth; assay type: cell-based; conditions: Homo sapiens, DND41, 72 h, read-out: IC50 DND-41
[8] = tested on: Z-138 non-Hodgkin lymphoma cells; assay: Antiproliferative screening, IncuCyte cell growth; assay type: cell-based; conditions: Homo sapiens, Z-138, 72 h, read-out: IC50 Z-138
[9] = tested on: NCI-H460 lung carcinoma cells; assay: Antiproliferative screening, MTS cell viability assay; assay type: cell-based; conditions: Homo sapiens
[10] = Cytotoxicity in MT-4 cell culture; assay type: cell-based; conditions: human, MT-4 cells
[11] = in vitro; conditions: human
[12] = tested on: human coronavirus 229E; conditions: HEL cell culture
[13] = CAPAN-1, 72 h, read-out: IC50 Capan-1
[14] = HCT-116, 72 h, read-out: IC50 HCT-116
[15] = HL-60, 72 h, read-out: IC50 HL-60
[16] = NCI-H460, 72 h, read-out: IC50 NCI-H460

Row | SMILES | IC50 [1, 13] [µM] | IC50 [2] [µM] | IC50 [3, 14] [µM] | IC50 [4, 15] [µM] | IC50 [5] [µM] | IC50 [6] [µM] | IC50 [7] [µM] | IC50 [8] [µM] | IC50 [9, 16] [µM] | CC50 at 5 days [10] [µM] | CC50 [11] [µM] | Cytotoxicity against noncancerous cells in words ([2]; HEL 299) | IC50 ([1]; CAPAN-1, read-out: IC50 Capan-1) [µM] | IC50 ([3]; HCT-116, read-out: IC50 HCT-116) [µM] | IC50 ([4]; HL-60, read-out: IC50 HL-60) [µM] | IC50 ([9]; NCI-H460, read-out: IC50 NCI-H460) [µM] | SI, selectivity index (CC50 to EC50 ratio) 229E [12]
1 | COc1cc(NC(C)CCCNC(=O)c2ccc(Cl)cc2N)c2ncccc2c1 (centres unmarked) [Compound 15, 2-Amino-4-chloro-N-{4-[(6-methoxyquinolin-8-yl)amino]pentyl}benzamide] | > 100 | > 100 | > 100 | > 100 | > 100 | > 100 | > 100 | > 100 | > 100 | – | – | – | – | – | – | – | –
2 | Cc1nc(CNC(=O)c2cc(Br)ccc2N)cc2c1[nH]c1ccccc12 [Compound 19, 2-Amino-5-bromo-N-[(1-methyl-9H-pyrido[3,4-b]indol-3-yl)methyl]benzamide] | 38.9 ± 5.8 | 82.6 ± 17.4 | 60.8 ± 31 | 66.3 ± 34 | 46.2 ± 7.5 | 64.9 ± 4.9 | 68.3 ± 12.2 | 55.5 ± 12.1 | 55 ± 5 | – | – | – | – | – | – | – | –
3 | Cc1nc(CN)cc2c1[nH]c1ccccc12 [HA, (1-methyl-9H-pyrido[3,4-b]indol-3-yl)methanamine, reference compound] | 68.6 ± 3.4 | > 100 | > 100 | > 100 | > 100 | > 100 | > 100 | 57.4 ± 32.6 | 85.1 ± 14.8 | 22.3 ± 4.9 | > 100 | – | – | – | – | – | –
4 | CC(C)(C)OC(=O)Nc1ccc(Br)cc1C(=O)NCCCCNc1ccnc2cc(Cl)ccc12 [Compound 3, tert-Butyl {4-bromo-2-[[4-[(7-chloroquinolin-4-yl)amino]butyl]carbamoyl]phenyl}carbamate] | 40.6 ± 4.2 | > 100 | 66.1 ± 30 | 60.5 ± 17 | 48.4 ± 20 | 51.2 ± 9.3 | 51.3 ± 4.4 | 55.2 ± 9.2 | 69.3 ± 30.7 | – | – | no cytotoxicity against noncancerous cells | – | – | – | – | –
5 | CN[C@@H]1C[C@H]2O[C@@](C)([C@@H]1OC)n1c3ccccc3c3c4c(c5c6ccccc6n2c5c31)C(=O)NC4 [STS, staurosporine, reference compound] | – | – | – | – | – | – | – | – | – | – | – | – | 0.0382 ± 0.003 | 0.0687 ± 0.003 | 0.0598 ± 0.003 | 0.0384 ± 0.003 | –
6 | Nc1ccccc1C(=O)NCCCCNc1ccnc2ccccc12 [Compound 11, 2-Amino-N-[4-(quinolin-4-ylamino)butyl]benzamide] | 62.2 ± 9.7 | 41.6 ± 1.2 | 45.4 ± 4.9 | 44.7 ± 11 | 39.7 ± 4.4 | 18.7 ± 6.7 | 59.6 ± 1.7 | 31.2 ± 1.1 | 87.4 ± 12.6 | – | 46.3 ± 1.2 | – | – | – | – | – | 6.0
7 | O=C(NCCCCNc1ccnc2ccccc12)c1ccccc1NCc1ccccc1 [Compound 10, 2-(Benzylamino)-N-[4-(quinolin-4-ylamino)butyl]benzamide] | 4.2 ± 3.4 | 33.6 ± 15.6 | 7.4 ± 1.5 | 14.9 ± 7.3 | 3 ± 2 | 5.9 ± 3.5 | 8 ± 3.2 | 4.6 ± 2 | 2.2 ± 0.8 | – | 5.6 ± 3 | – | – | – | – | – | > 7
8 | Cc1nc(CNC(=O)c2ccccc2NCc2ccccc2)cc2c1[nH]c1ccccc12 [Compound 7, 2-(Benzylamino)-N-[(1-methyl-9H-pyrido[3,4-b]indol-3-yl)methyl]benzamide] | 27.5 ± 8.1 | 50.9 ± 2.7 | 34.6 ± 6 | 66.2 ± 18.3 | 35.8 ± 9.3 | 90.7 ± 18.5 | 53.5 ± 6.7 | 21 ± 10.1 | 28.4 ± 4 | – | – | – | – | – | – | – | –
9 | COc1cc(NC(C)CCCNC(=O)c2ccccc2NCc2ccccc2)c2ncccc2c1 (centres unmarked) [Compound 4, 2-(Benzylamino)-N-{4-[(6-methoxyquinolin-8-yl)amino]pentyl}benzamide] | > 100 | > 100 | > 100 | > 100 | > 100 | > 100 | > 100 | > 100 | > 100 | – | – | – | – | – | – | – | –

Reference: publication PMC8741576 (Molecular Diversity, 2022)
